Laboratory results from patent US12281149B2, “Modulators of G-protein coupled receptors” (priority 2021, dated 2025).
*1 amine or outer side, *2 acyl side, *3 side chain or, on linkers, in order; H or OH if unused. Where a SMILES comes first, the peptide text is derived from it. Side-chain parts run from the residue outwards. [ ]: non-standard residue; d: D form. The star is where a group is joined. Isobutyryl(2-(3-CN-5-F-Ph)) = CC(C)(C(=O)*)c1cc(F)cc(C#N)c1; C20 diacid = O=C(O)CCCCCCCCCCCCCCCCCCC(=O)*; γGlu = O=C(O)[C@H](CCC(=O)[*:2])N[*:1]; X4 = O=C(C(F)(F)c1ccc(F)cc1)*; Dap = NC[C@H](N)C(=O)O; AEEA = NCCOCCOCC(=O)O; Aib = CC(C)(N)C(=O)O; βAla = NCCC(=O)O

Assays:
Format in all cases: cell-based
[1] = target: T1, GLP-1 receptor (Homo sapiens, UniProt P43220); test: HitHunter cAMP assay, GLP-1 receptor; details: for EC50: CHO cells stably expressing human GLP-1 receptor, cAMP accumulation, 30 min, read-out: EC50 GLP-1R; for Emax: CHO cells, cAMP, normalized to maximum signal from GLP-1 (high) and DMSO (low), read-out: Emax GLP-1R
[2] = target: T2, GIP receptor (Homo sapiens, UniProt P48546); test: HitHunter cAMP assay, GIP receptor; details: for EC50: CHO cells stably expressing GIP receptor, cAMP accumulation, 30 min, read-out: EC50 GIP-1R; for Emax: CHO cells, cAMP, normalized to maximum signal from GIP (high) and DMSO (low), read-out: Emax GIP-1R
T2 sequence (P48546 22-466): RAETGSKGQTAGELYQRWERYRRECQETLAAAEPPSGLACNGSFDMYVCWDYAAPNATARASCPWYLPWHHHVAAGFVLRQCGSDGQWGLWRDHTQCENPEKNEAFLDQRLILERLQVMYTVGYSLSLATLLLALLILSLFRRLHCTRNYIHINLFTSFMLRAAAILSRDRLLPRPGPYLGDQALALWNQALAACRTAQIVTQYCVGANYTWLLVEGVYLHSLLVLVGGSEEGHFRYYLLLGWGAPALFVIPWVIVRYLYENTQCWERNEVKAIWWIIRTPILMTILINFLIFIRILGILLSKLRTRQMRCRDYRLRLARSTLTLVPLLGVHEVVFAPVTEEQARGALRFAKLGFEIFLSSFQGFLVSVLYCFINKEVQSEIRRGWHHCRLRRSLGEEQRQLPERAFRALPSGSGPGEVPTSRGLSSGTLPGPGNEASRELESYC

[3] = target: T2, GIP receptor; test: PathHunter β-arrestin assay, GIP receptor; design: host or cells: PathHunter CHO-K1 GIPR β-Arrestin Cell Line; details: β-arrestin-2 recruitment, PathHunter CHO-K1 GIPR β-Arrestin Cell Line, 90 min at 37° C.; normalized to GIP; read-out: GIPR β Arrestin EC50
[4] = target: T1, GLP-1 receptor; test: PathHunter β-arrestin assay, GLP-1 receptor; design: host or cells: PathHunter CHO-K1 GLP1R β-Arrestin Cell Line; details: β-arrestin-2 recruitment, PathHunter CHO-K1 GLP1R β-Arrestin Cell Line, 90 min at 37° C.; normalized to GLP-1; read-out: GLP-1R β Arrestin EC50

T1 sequence (P43220 24-463): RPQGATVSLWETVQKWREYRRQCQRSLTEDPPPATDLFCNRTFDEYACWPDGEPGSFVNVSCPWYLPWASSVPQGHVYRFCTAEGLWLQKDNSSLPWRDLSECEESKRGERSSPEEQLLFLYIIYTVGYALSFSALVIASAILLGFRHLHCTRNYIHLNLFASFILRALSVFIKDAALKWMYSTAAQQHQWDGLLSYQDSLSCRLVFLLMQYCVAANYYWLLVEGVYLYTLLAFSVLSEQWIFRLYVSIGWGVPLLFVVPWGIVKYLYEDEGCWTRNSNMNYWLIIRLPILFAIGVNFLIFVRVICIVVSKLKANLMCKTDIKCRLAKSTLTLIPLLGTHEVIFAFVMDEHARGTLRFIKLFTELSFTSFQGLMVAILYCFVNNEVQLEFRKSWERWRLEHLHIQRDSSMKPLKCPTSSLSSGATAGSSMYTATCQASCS

SMILES	EC50 [1] [nM]	Emax [1] [%]	EC50 [2] [nM]	Emax [2] [%]	EC50 [3] [nM]	EC50 [4] [nM]
CC[C@H](C)[C@H](NC(=O)[C@H](CO)NC(=O)[C@H](Cc1ccc(O)cc1)NC(=O)[C@H](CC(=O)O)NC(=O)[C@H](CO)NC(=O)[C@@H](NC(=O)[C@H](Cc1ccccc1)NC(=O)[C@@H](NC(=O)CNC(=O)[C@H](CCC(=O)O)NC(=O)CCNC(=O)C(C)(C)c1cc(F)cc(C#N)c1)[C@@H](C)O)[C@@H](C)O)C(=O)N[C@@H](Cc1ccc(O)cc1)C(=O)N[C@@H](CC(C)C)C(=O)N[C@@H](CC(=O)O)C(=O)N[C@@H](CCCCN)C(=O)N[C@@H](CCC(N)=O)C(=O)N[C@@H](C)C(=O)N[C@@H](C)C(=O)NC(C)(C)C(=O)N[C@@H](CCC(=O)O)C(=O)N[C@@H](Cc1ccccc1)C(=O)N[C@H](C(=O)N[C@@H](CC(N)=O)C(=O)N[C@@H](Cc1c[nH]c2ccccc12)C(=O)N[C@@H](CC(C)C)C(=O)N[C@@H](CC(C)C)C(=O)N[C@@H](C)C(=O)NCC(=O)NCC(=O)N1CCC[C@H]1C(=O)N[C@@H](CO)C(=O)N[C@@H](CO)C(=O)NCC(=O)N[C@@H](C)C(=O)N1CCC[C@H]1C(=O)N1CCC[C@H]1C(=O)N1CCC[C@H]1C(=O)N[C@@H](CO)C(=O)N[C@@H](CCCCNC(=O)COCCOCCNC(=O)COCCOCCNC(=O)CC[C@H](NC(=O)CCCCCCCCCCCCCCCCCCC(=O)O)C(=O)O)C(N)=O)C(C)C [Compound 187]	1 to 10	95	10 to 100	95	> 1000	> 1000
CC[C@H](C)[C@H](NC(=O)[C@H](CC(C)C)NC(=O)[C@H](Cc1c[nH]c2ccccc12)NC(=O)[C@H](CCC(N)=O)NC(=O)[C@@H](NC(=O)[C@H](Cc1ccccc1)NC(=O)[C@H](C)NC(=O)[C@H](CCCCNC(=O)COCCOCCNC(=O)COCCOCCNC(=O)CC[C@H](NC(=O)CCCCCCCCCCCCCCCCCCC(=O)O)C(=O)O)NC(=O)[C@H](CCC(N)=O)NC(=O)[C@H](C)NC(=O)[C@@H](NC(=O)[C@H](CCCCN)NC(=O)[C@H](CC(=O)O)NC(=O)[C@H](CC(C)C)NC(=O)C(C)(C)NC(=O)[C@@H](NC(=O)[C@H](CO)NC(=O)[C@H](Cc1ccc(O)cc1)NC(=O)[C@H](CC(=O)O)NC(=O)[C@H](CO)NC(=O)[C@@H](NC(=O)[C@H](Cc1ccccc1)NC(=O)[C@@H](NC(=O)CNC(=O)[C@H](CCC(=O)O)NC(=O)CCNC(=O)C(F)(F)c1ccc(F)cc1)[C@@H](C)O)[C@@H](C)O)[C@@H](C)CC)[C@@H](C)CC)C(C)C)C(=O)N[C@@H](C)C(=O)NCC(=O)NCC(=O)N1CCC[C@H]1C(=O)N[C@@H](CO)C(=O)N[C@@H](CO)C(=O)NCC(=O)N[C@@H](C)C(=O)N1CCC[C@H]1C(=O)N1CCC[C@H]1C(=O)N1CCC[C@H]1C(=O)N[C@@H](CO)C(N)=O [Compound 188] ({X4-βAla}-EGTFTSDYSI[Aib]LDKIAQK([AEEA-AEEA-γGlu-C20 diacid])AFVQWLIAGGPSSGAPPPS-NH2)	0.1 to 1	91	10 to 100	79	> 1000	> 1000
CC[C@H](C)[C@H](NC(=O)[C@H](CCCCN)NC(=O)[C@H](CC(=O)O)NC(=O)[C@H](CC(C)C)NC(=O)[C@H](Cc1ccc(O)cc1)NC(=O)[C@@H](NC(=O)[C@H](CO)NC(=O)[C@H](Cc1ccc(O)cc1)NC(=O)[C@H](CC(=O)O)NC(=O)[C@H](CO)NC(=O)[C@@H](NC(=O)[C@H](Cc1ccccc1)NC(=O)[C@@H](NC(=O)CNC(=O)[C@H](CCC(=O)O)NC(=O)CCNC(=O)C(C)(C)c1cc(F)cc(C#N)c1)[C@@H](C)O)[C@@H](C)O)[C@@H](C)CC)C(=O)N[C@@H](C)C(=O)N[C@@H](CCC(N)=O)C(=O)N[C@@H](CCCCNC(=O)COCCOCCNC(=O)COCCOCCNC(=O)CC[C@H](NC(=O)CCCCCCCCCCCCCCCCCCC(=O)O)C(=O)O)C(=O)N[C@@H](C)C(=O)N[C@@H](Cc1ccccc1)C(=O)N[C@H](C(=O)N[C@@H](CCC(N)=O)C(=O)N[C@@H](Cc1c[nH]c2ccccc12)C(=O)N[C@@H](CC(C)C)C(=O)N[C@H](C(=O)N[C@@H](C)C(=O)NCC(=O)NCC(=O)N1CCC[C@H]1C(=O)N[C@@H](CO)C(=O)N[C@@H](CO)C(=O)NCC(=O)N[C@@H](C)C(=O)N1CCC[C@H]1C(=O)N1CCC[C@H]1C(=O)N1CCC[C@H]1C(=O)N[C@@H](CO)C(N)=O)[C@@H](C)CC)C(C)C [Compound 189] ({Isobutyryl(2-(3-CN-5-F-Ph))-βAla}-EGTFTSDYSIYLDKIAQK([AEEA-AEEA-γGlu-C20 diacid])AFVQWLIAGGPSSGAPPPS-NH2)	0.1 to 1	95	10 to 100	93	> 1000	> 1000
CC[C@H](C)[C@H](NC(=O)[C@H](CCCCN)NC(=O)[C@H](CC(=O)O)NC(=O)[C@H](CC(C)C)NC(=O)C(C)(C)NC(=O)[C@@H](NC(=O)[C@H](CO)NC(=O)[C@H](Cc1ccc(O)cc1)NC(=O)[C@H](CC(=O)O)NC(=O)[C@H](CO)NC(=O)[C@@H](NC(=O)[C@H](Cc1ccccc1)NC(=O)[C@@H](NC(=O)CNC(=O)[C@H](CCC(=O)O)NC(=O)CCNC(=O)C(C)(C)c1cc(F)cc(C#N)c1)[C@@H](C)O)[C@@H](C)O)[C@@H](C)CC)C(=O)N[C@@H](C)C(=O)N[C@@H](CCC(N)=O)C(=O)N[C@@H](CCCCNC(=O)COCCOCCNC(=O)COCCOCCNC(=O)CC[C@H](NC(=O)CCCCCCCCCCCCCCCCCCC(=O)O)C(=O)O)C(=O)N[C@@H](C)C(=O)N[C@@H](Cc1ccccc1)C(=O)N[C@H](C(=O)N[C@@H](CCC(N)=O)C(=O)N[C@@H](Cc1c[nH]c2ccccc12)C(=O)N[C@@H](CC(C)C)C(=O)N[C@@H](CC(C)C)C(=O)N[C@@H](C)C(=O)NCC(=O)NCC(=O)N1CCC[C@H]1C(=O)N[C@@H](CO)C(=O)N[C@@H](CO)C(=O)NCC(=O)N[C@@H](C)C(=O)N1CCC[C@H]1C(=O)N1CCC[C@H]1C(=O)N1CCC[C@H]1C(=O)N[C@@H](CO)C(N)=O)C(C)C [Compound 190] ({Isobutyryl(2-(3-CN-5-F-Ph))-βAla}-EGTFTSDYSI[Aib]LDKIAQK([AEEA-AEEA-γGlu-C20 diacid])AFVQWLLAGGPSSGAPPPS-NH2)	1 to 10	98	1 to 10	100	> 1000	> 1000
CC[C@H](C)[C@H](NC(=O)[C@H](CC(C)C)NC(=O)[C@H](Cc1c[nH]c2ccccc12)NC(=O)[C@H](CCC(N)=O)NC(=O)[C@@H](NC(=O)[C@H](Cc1ccccc1)NC(=O)[C@H](C)NC(=O)[C@H](CCCCNC(=O)COCCOCCNC(=O)COCCOCCNC(=O)CC[C@H](NC(=O)CCCCCCCCCCCCCCCCCCC(=O)O)C(=O)O)NC(=O)[C@H](CCC(N)=O)NC(=O)[C@H](C)NC(=O)[C@@H](NC(=O)[C@H](CCCCN)NC(=O)[C@H](CC(=O)O)NC(=O)[C@H](CC(C)C)NC(=O)C(C)(C)NC(=O)[C@@H](NC(=O)[C@H](CO)NC(=O)[C@H](Cc1ccc(O)cc1)NC(=O)[C@H](CC(=O)O)NC(=O)[C@H](CO)NC(=O)[C@@H](NC(=O)[C@H](Cc1ccccc1)NC(=O)[C@@H](NC(=O)CNC(=O)[C@H](CCC(=O)O)NC(=O)[C@@H](N)CNC(=O)C(C)(C)c1cc(F)cc(C#N)c1)[C@@H](C)O)[C@@H](C)O)[C@@H](C)CC)[C@@H](C)CC)C(C)C)C(=O)N[C@@H](C)C(=O)NCC(=O)NCC(=O)N1CCC[C@H]1C(=O)N[C@@H](CO)C(=O)N[C@@H](CO)C(=O)NCC(=O)N[C@@H](C)C(=O)N1CCC[C@H]1C(=O)N1CCC[C@H]1C(=O)N1CCC[C@H]1C(=O)N[C@@H](CO)C(N)=O [Compound 191] (H-[Dap](Isobutyryl(2-(3-CN-5-F-Ph)))EGTFTSDYSI[Aib]LDKIAQK([AEEA-AEEA-γGlu-C20 diacid])AFVQWLIAGGPSSGAPPPS-NH2)	1 to 10	92	10 to 100	98	> 1000	> 1000
